Experimental data as given in US20240182492A1, “AZAHETEROARYL COMPOUND, PREPARATION METHOD THEREFOR, AND APPLICATION THEREOF” (SHANGHAI BLUERAY BIOPHARMA CO., LTD., priority 2021, published 2024).

Key:
[1] = molecular target: T1, EED protein (full-length, His6 tag) binding to H3K27me3 polypeptide (Homo sapiens, UniProt O75530); assay: AlphaScreen evaluation of blocking the binding of EED to H3K27Me3; conditions: EED / biotinylated H3K27me3 peptide competition
T1 construct: The full-length EED protein (441 amino acids) with His6 tag
T1 sequence (O75530 whole entry): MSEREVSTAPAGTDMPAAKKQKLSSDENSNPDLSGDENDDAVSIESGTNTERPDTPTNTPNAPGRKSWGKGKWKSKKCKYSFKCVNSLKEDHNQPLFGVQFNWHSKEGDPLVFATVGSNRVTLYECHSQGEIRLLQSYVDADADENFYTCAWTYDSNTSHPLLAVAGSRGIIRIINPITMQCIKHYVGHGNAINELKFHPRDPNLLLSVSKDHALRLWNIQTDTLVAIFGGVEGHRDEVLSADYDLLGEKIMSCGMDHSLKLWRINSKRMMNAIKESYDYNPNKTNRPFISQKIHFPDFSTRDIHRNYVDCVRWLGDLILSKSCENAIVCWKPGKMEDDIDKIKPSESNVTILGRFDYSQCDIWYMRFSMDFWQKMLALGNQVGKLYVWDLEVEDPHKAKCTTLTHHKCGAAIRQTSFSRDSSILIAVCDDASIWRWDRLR
Experimental: Example 53: Evaluation of the Effect of the Compound in Blocking the Binding of EED to H3K27Me3 by AlphaScreen (a-Screening) Method
First, compound solutions with different concentration gradients are prepared. Compound powder is dissolved in DMSO to form mother liquor. 1.5 μL of the compound mother liquor is taken to 198.5 μL reaction buffer (25 mM HEPES (pH 8.0), 50 mM NaCl, 0.015% Tween 20, 0.5% BSA) and the solution is mix uniformly, and then 3-fold gradient dilution is performed with the above buffer containing 0.75% DMSO. 9 different test concentrations are set for the same compound. 5 μL of compounds with different concentration gradients was taken to ProxiPlate-384 Plus, White detection plate (PerkinElmer, 6008280), and 2 parallel replicates are set for each concentration gradient.
Next, a binding blocking reaction is performed. The full-length EED protein (441 amino acids) with His6 tag is diluted to 60 nM with the above buffer, and the biotinylated polypeptide fragment H3K27me3 (amino acids 19-33) (Biotinylated-H3K27me3) is diluted to 75 nM with the same buffer. 5 μL of 75 nM peptide fragments and 5 μL of 60 nM protein are transferred to the testing wells containing the compound respectively. The testing plate is sealed with a film, and is incubated for 30 minutes at room temperature.
Finally, AlphaScreen method is used for detection. Before use, nickel chelate acceptor beads and streptavidin donor beads (Perkin Elmer, product number 6760619M) are mixed into the above reaction buffer at a ratio of 1:1, and then 5 μL of the above pre-mixed testing solution is added to each testing well. The final concentration of the donor beads and acceptor beads is 5 μg/mL. The testing plate is covered with tin foil and placed at room temperature in the dark for 1 hour. Signals are read using an AlphaScreen detector on a Spectra max i3. The AlphaScreen signal is normalized according to the readings obtained from the positive control (maximum signal control) and negative control (minimum signal control) to give the inhibition rate of different concentrations of the compound. After that, non-linear regression analysis was performed with GraphPad Prism 5, and dose-response equation Y=Bottom+(Top−Bottom)/(1+10^((Log IC50−X)*HillSlope)) is used to make an inhibition curve, obtaining the IC50 value of each compound. […]

[2] = tested on: B-cell non-Hodgkin lymphoma cells KARPAS-422; assay: Cell proliferation analysis, KARPAS-422, 13 days, CellTiter-Glo; assay type: cell-based, Human
Experimental: Example 55: Cell Proliferation Analysis
Human B-cell non-Hodgkin lymphoma cells KARPAS-422 S were cultured in culture flasks using standard cell culture conditions. The culture medium contains 15% fetal bovine serum (FBS, Invitrogen, product number 10099-141), 1% penicillin/streptomycin solution (P/S) RPMI-1640 (Invitrogen, product number 11875), and the culture flask is placed and cultured in a sterile incubator at 37° C., 95% relative humidity, and 5% CO2. In order to detect the effect of PRC2 inhibitors on cell proliferation, cells in the exponential growth phase were seeded into 96-well plates (Corning, product number 3904) at a density of 1×10^4 cells/well, and 100 μL of medium was added to each well. Subsequently, the compounds disclosed herein at different concentrations were added to the wells seeded with cells (9 concentration gradients were set for each compound, and the highest detection concentration was 10 μM, 3-fold gradient dilution), and 2 repeats in parallel were set for each treatment concentration. The final concentration of DMSO is 0.5%. Then the number of surviving cells was counted with Vi-CELL (Beckman Coulter) every 3-4 days. The cells counted each time were seeded into a new 96-well plate at the same density (1×10^4 cells/well). The wells were supplemented with fresh medium to 100 μL, and different concentrations of the compound were added at the same time. The cells were cultured until the 13th day, on which 100 μL of CellTiter-Glo (CellTiter-GloCellTiter-GloCellTiter-GloCTG) (Promega, Product No. G7573) was added to each well. The plate was placed for 10-20 minutes in the dark at room temperature, and Molecular Devices and SpectraMax i3X were used to read the luminous signal. The data were fitted to a dose-response curve using GraphPad prisim5 and the IC50 values of the tested compounds were obtained.

[3] = tested on: trimethylation level of histone H3K27 in G401 cells; assay: ELISA (H3K27 trimethylation) analysis in G401 cells; assay type: cell-based; conditions: H3K27me3 normalized by H3
Experimental: Example 54: ELISA (H3K27 Trimethylation) Analysis
Representative compounds of the present disclosure are diluted in DMSO with 3-fold gradient, and 10 concentration gradients are tested per compound. The maximum testing concentration is 10 μM. The compound is diluted 200-fold into G401 cells cultured in 96-well plates (the final concentration of DMSO is 0.5%). After the cells are cultured for 72 hours, the trimethylation level of histone H3K27 is detected by ELISA method.
Histone extraction: compound-treated cells in a 96-well plate are washed 3 times with 1×PBS (10×PBS buffer (80 g NaCl (Sigma, Product No. S3014), 2 g KCl (Sigma, Product No. 60128), 14.4 g Na2HAPO4 (Sigma, Product No. S5136) and 2.4 g KH2PO4 (Sigma, Product No. P9791) are added to 1 L water, pH to 7.4), and 100 μL of 0.4N HCl is added to each well. The 96-well plate is placed at 4° C. and gently shaken for 2 hours to lyse the cells. The cell lysate is then neutralized with 80 μL of neutralization buffer (0.5M disodium hydrogen phosphate, pH 12.5, 2.5 mM DTT; 1% cocktail (Sigma, Product No. P8340) (mixing the cell lysate and neutralization buffer thoroughly).
ELISA detection method: the cell lysates are transferred in parallel to two 384-well assay plates (PerkinElmer, OptiPlate-384HB, Product No. 6007290). One plate is used to detect the trimethylation level of H3K27, and the other plate is used to measure the level of H3. PBS is adjusted to a final volume of 50 μL/well. The wells are coated overnight at 4° C. On the next day, the solution in the wells was discarded. TBST buffer (1 xTBS (10×TBS: 24.2 g Tris (Sigma, Product No. T6066) and 80 g NaCl (Sigma, Product No. S3014) are added to 1 L water, and pH is adjusted to 7.6 with HCl) and 0.1% Tween-20) is used to wash it 5 times, and the water is dried on absorbent papers. 70 μL of blocking buffer (TBST, 5% BSA) is added to the coated reaction wells, and the wells are incubated for 1 hour at room temperature. The blocking buffer was discarded, and the primary antibody is added (30 μL/well). The required primary antibodies are diluted with blocking buffer, and the dilution ratios were as follows: anti-H3K27me3 antibody (Cell Signaling Technology, Product No. 9733), 1:2000 dilution; anti-H3 antibody (Cell Signaling Technology, Product No. 4499), 1:10000 dilution. After adding the primary antibody, the wells are incubated at room temperature for 1 hour. After washing with TBST for 5 times, the water are dried. The secondary antibody (30 μL/well) is added to each reaction well, and the wells are incubated at room temperature for 1 hour. Secondary antibody (anti-rabbit antibody (Jackson ImmunoResearch, Product No. 111-035-003)) is used after dilution 2000-fold in blocking buffer. After 1 hour, it is washed with TBST and dried. 30 μL of ECL substrate (Pierce, Product No. 34080) is added to each well and centrifuged for 30 seconds at 2000 rpm. Signal of each sample is detected using Molecular Devices, SpectraMax. Data processing: H3K27 methylation readings are first normalized by H3 signal. 0.500 DM8)-treated sample is used as a control, and the inhibition percentage of the compound is calculated. The data is fitted to a dose-response curve using the GraphPad prisim5 program, obtaining the IC50 values of the test compounds.

[4] = Homo sapiens, KARPAS-422, 312 h, Karpas-422, 13 days

| Compound | IC50 [1] [µM] | IC50 [2, 4] [µM] | IC50 ([3]; Homo sapiens, G-401, 72 h) [µM] | IC50 ([2]; Karpas-422, 13 days) [µM] | IC50 ([3]; 72 hours) [µM] | IC50 ([2]; Homo sapiens, KARPAS-422, 312 h) [µM] | IC50 ([3]; Homo sapiens, G-401, 72 hours) [µM] |
| --- | --- | --- | --- | --- | --- | --- | --- |
| CCC(C)(O)c1ccc(-c2cnc(NCc3c(F)ccc4c3CCO4)n3cnnc23)c2ncnn12 (single isomer, unassigned) [Compound a] | 0.0054 | 0.0041 | 0.0012 | – | – | – | – |
| CCC(C)(O)c1ccc(-c2cnc(NCc3c(F)ccc4c3CCO4)n3cnnc23)c2ncnn12 (single isomer, unassigned) [Compound b] | 0.0089 | – | – | 0.0079 | 0.0017 | – | – |
| CC(O)(c1ccc(-c2cnc(NCc3c(F)ccc4c3CCO4)n3cnnc23)c2ncnn12)C(F)(F)F (single isomer, unassigned) [Compound c] | 0.0025 | 0.0095 | 0.0017 | – | – | – | – |
| CC(O)(c1ccc(-c2cnc(NCc3c(F)ccc4c3CCO4)n3cnnc23)c2ncnn12)C(F)(F)F (single isomer, unassigned) [Compound d] | 0.0055 | – | – | – | – | 0.0087 | 0.0047 |
| CCC(O)c1ccc(-c2cnc(NCc3c(F)ccc4c3CCO4)n3cnnc23)c2ncnn12 (single isomer, unassigned) [Compound e] | 0.0064 | – | – | 0.002 | 0.0004 | – | – |
| CCC(O)c1ccc(-c2cnc(NCc3c(F)ccc4c3CCO4)n3cnnc23)c2ncnn12 (single isomer, unassigned) [Compound f] | 0.0066 | – | – | 0.0054 | 0.0013 | – | – |
| CC(O)(CF)c1ccc(-c2cnc(NCc3c(F)ccc4c3CCO4)n3cnnc23)c2ncnn12 (single isomer, unassigned) [Compound g] | 0.004 | 0.0015 | 0.0006 | – | – | – | – |
| CC(O)(CF)c1ccc(-c2cnc(NCc3c(F)ccc4c3CCO4)n3cnnc23)c2ncnn12 (single isomer, unassigned) [Compound h] | 0.0048 | – | – | 0.0025 | 0.0012 | – | – |
| CC(O)(c1ccc(-c2cnc(NCc3c(F)ccc4c3CCO4)n3cnnc23)c2ncnn12)C(F)(F)F (stereo not drawn) [1,1,1-trifluoro-2-(8-(5-(((5-fluoro-2,3-dihydrobenzofuran-4-yl)methyl)amino)-[1,2,4]triazolo[4,3-c]pyrimidin-8-yl)-[1,2,4]triazolo[1,5-a]pyridin-5-yl)propan-2-ol] | 0.0048 | 0.0088 | 0.0019 | – | – | – | – |
| OC(c1ccc(-c2cnc(NCc3c(F)ccc4c3CCO4)n3cnnc23)c2ncnn12)(C(F)F)C(F)F [1,1,3,3-tetrafluoro-2-(8-(5-(((5-fluoro-2,3-dihydrobenzofuran-4-yl)methyl)amino)-[1,2,4]triazolo[4,3-c]pyrimidin-8-yl)-[1,2,4]triazolo[1,5-a]pyridin-5-yl)propan-2-ol] | 0.003 | 0.0049 | 0.0012 | – | – | – | – |
| CC(O)(c1ccc(-c2cnc(NCc3c(F)ccc4c3CCO4)n3cnnc23)c2ncnn12)C(F)F (stereo not drawn) [1,1-difluoro-2-(8-(5-(((5-fluoro-2,3-dihydrobenzofuran-4-yl)methyl)amino)-[1,2,4]triazolo[4,3-c]pyrimidin-8-yl)-[1,2,4]triazolo[1,5-a]pyridin-5-yl)propan-2-ol] | 0.0051 | 0.0048 | 0.0015 | – | – | – | – |
| OC(CF)(CF)c1ccc(-c2cnc(NCc3c(F)ccc4c3CCO4)n3cnnc23)c2ncnn12 [1,3-difluoro-2-[8-(5-{[(5-fluoro-2,3-dihydro-1-benzofuran-4-yl)methyl]amino]-[1,2,4]triazolo[4,3-c]pyrimidin-8-yl)-[1,2,4]triazol[1,5-a]pyridin-5-yl]propan-2-ol] | 0.0069 | 0.0041 | 0.0011 | – | – | – | – |
| Fc1ccc2c(c1CNc1ncc(-c3cccn4ncnc34)c3nncn13)CCO2 [8-([1,2,4]triazolo[1,5-a]pyridin-8-yl)-N-((5-fluoro-2,3-dihydrobenzofuran-4-yl)methyl)-[1,2,4]triazolo[4,3-c]pyrimidin-5-amine] | 0.0047 | – | – | – | – | – | – |
| Cc1ccc(-c2cnc(NCc3c(F)ccc4c3CCO4)n3cnnc23)c2ncnn12 [N-((5-fluoro-2,3-dihydrobenzofuran-4-yl)methyl)-8-(5-methyl-[1,2,4]triazolo[1,5-a]pyridin-8-yl)-[1,2,4]triazolo[4,3-c]pyrimidin-5-amine] | 0.0089 | – | – | – | – | – | – |
| Cc1ccc(-c2cnc(NCc3c(F)ccc4c3[C@H]3C[C@H]3O4)n3cnnc23)c2ncnn12 [N-(((1aR,6bR)-5-fluoro-1a,6b-dihydro-1H-cyclopropeno[b]benzofuran-6-yl)methyl)-8-(5-methyl-[1,2,4]triazolo[1,5-a]pyridin-8-yl)-[1,2,4]triazolo[4,3-c]pyrimidin-5-amine] | 0.0035 | – | – | – | – | – | – |
